According to patent US20200163342A1, “MIXTURES COMPRISING A BIOPESTICIDE AND A NITRIFICATION INHIBITOR” (BASF SE, priority 2017, published 2020):
Bridge positions count the residues as written; N and C are the ends. Square brackets hold non-standard residues; d marks the D form. Peptide text beside a SMILES is read from it. * marks the point of attachment. ξ: configuration not given here. Pentadecanoyl(3ξ-OH,15-Gua) = N=C(N)NCCCCCCCCCCCCC(O)CC(=O)*; d(aThr) = C[C@@H](O)[C@@H](N)C(=O)O; Thr(3ξ) = CC(O)[C@H](N)C(=O)O; ξY = NC(Cc1ccc(O)cc1)C(=O)O

What was measured:
[1] = system: soybean (Glycine max 'Sultana'); assay: Greenhouse detection of plant biomass (fresh weight), soybean; format: in vivo; details: 17 days after start, with AS liquid, DMPSA 1% of NH4-N where present
Procedure: (§1) Plants were generally grown under standard green house conditions (20° C. and 60% humidity) using standard greenhouse soil (mixture of peat, loam and sand). Therefore, 0.4 g of ryegrass seeds (Lolium perennes ‘Chagall’), 1 soybean seed (Glycine max ‘Sultana’) or 1 grape vine live stack (Vitis vinifer ssp. ‘Sativa’) were grown per pot (8.4 cm for ryegrass, soybean; 13 cm for grape vine) in a completely randomized set-up. Following a growth period of ten days (ryegrass), 14 days (soybean) or approx. 21 days, until the main shoot reached a length of 20 cm (grape vine), plants were designated for experimental usage.
Detection of ryegrass and soybean biomass (fresh weight) was determined gravitometricallly. Therefore, plants were cut using a hand held lawn cutter (ryegrass) or garden shears (soybean) 1 cm above the soil. Given ryegrass data represent the mean value of respective replicates summed up for 3 cuttings. For experiments using ryegrass, evaluations were conducted 5, 12 and 17 days after start of the experiment. For experiments using soybean, biomass evaluation was conducted 17 days after experimental start.
(§2) In Table N1, the weight ratio between DMPSA and Histick Super is 3.65:1, the weight ratio between DMPSA and Hicoat is 10.43:1.

N2O emissions from soils = assay: Greenhouse detection of nitrous oxide losses (N2O emission), soybean pots; format: in vivo, Glycine max 'Sultana'; details: DMPSA 1% of NH4-N where present
Procedure: as §1
On application day (DATO), each pot (with/without plants) was set onto a plant saucer designed with an inner compartment for the pot and an outer ring that is filled with water. At time 0, water holding capacity of the soil was set to 60-70% prior to application with/without fertilizer and active ingredient. Subsequently, a gas sampling chamber was placed over the plant saucer such that the rim fit into the ring filled with water to create a gas-tight chamber and 25 cc air from the chamber were drawn into a syringe and immediately emptied in to a Vacutainer (Labco, 12 ml volume). This equals the Time 0 measurement for each pot. The same procedure was performed with all pots in the experiment. After two hour incubation time, again 25 cc air samples were taken from the gas chambers and emptied into Vacutainers as described above. Plants were then returned to their positions in the climate chamber. The procedure was repeated at precisely the same time of day for up to 19 days.
Samples were analyzed in a Shimadzu 2014 GC equipped with an ECD system.
as §2

[2] = system: grape vine (Vitis vinifer ssp. 'Sativa'); assay: Greenhouse shoot elongation, grape vine; format: in vivo; details: grape vine main shoot elongation, 17 days after start; DMPSA 1% of NH4-N, VitoVin 12481 g/ha
Procedure: as §1
For experiments using grape vine, elongation of the main shoot was measured metrically 17 days after experimental start.
In Table N2, the weight ratio between DMPSA and VitoVin is 1:5.6.

Fusarium oxysporum = details: WO2006/016558; EP1 788 074 A1; cited from earlier work
[3] = system: Fusarium oxysporum, Aspergillus niger, Aspergillus oryzae, and Penicillum thomii; details: J. Antibiotics 49(2), 129-135, 1996; 50(3), 220-228, 1997; cited from earlier work
cultured parsley cells = details: WO2006/016558; EP1 788 074 A1; cited from earlier work
[4] = system: clinically relevant fungi and gram-positive bacteria such a Staphylococcus aureus; details: variety of clinically relevant fungi and gram-positive bacteria; ChemMedChem 7, 871-882, 2012; cited from earlier work
[5] = system: Fusarium moniliforme, F. oxysporum, F. roseum, Giberella fujkuroi, Helminthosporium sesamum and Penicillium expansum; details: J. Antibiotics 40(11), 1506-1514, 1987; cited from earlier work

Molecule: 2-(3,4-dimethyl-1H-pyrazol-1-yl)succinic acid (DMPSA1) and/or 2-(4,5-dimethyl-1H-pyrazol-1-yl)succinic acid (DMPSA2)
- Biomass increase [% of fertilized control] [1]: 83 % of fertilized control
- net Biomass increase [1]: -2.47 g
- N2O emission ppb (N2O emissions from soils; with AS liquid (ammonium sulfate, 219000 g/ha NH4-N)): 38 ppb
- N2O emission ppb net emission (N2O emissions from soils; with AS liquid): 38 ppb
- % inhibition (N2O emission) (N2O emissions from soils; with AS liquid, relative to soybean untreated + AS liquid): 19%
- relative Growth increase [% of control] [2]: 104 % of control

Molecule: CC(C)[C@@H]1NC(=O)[C@@H](C(C)C)NC(=O)[C@@H](NC(=O)CC(O)CCCCCCCCCCCCN=C(N)N)C(C)OC(=O)[C@@H](C)NC(=O)[C@@H](CCC(N)=O)NC(=O)[C@@H]([C@H](C)O)NC1=O (stereo in doubt) [fusaricidin B]
- inhibition of growth of Fusarium oxysporum (Fusarium oxysporum): inhibit growth
- inhibition of plant pathogenic fungi [3]: inhibit plant pathogenic fungi
- induction of resistance reactions in cultured parsley cells (cultured parsley cells): induce resistance reactions

Molecule: CC(C)[C@@H]1NC(=O)[C@@H](C(C)C)NC(=O)[C@@H](NC(=O)CC(O)CCCCCCCCCCCCN=C(N)N)[C@@H](C)OC(=O)[C@@H](C)NC(=O)[C@@H](CC(N)=O)NC(=O)[C@@H]([C@@H](C)O)NC1=O (stereo partly drawn) [fusaricidin A] ({Pentadecanoyl(3ξ-OH,15-Gua)}-T[dV]V[d(aThr)][dN][dA]; ester 1-C)
- inhibition of growth of Fusarium oxysporum (Fusarium oxysporum): inhibit growth
- MIC value range [4]: 0.78 to 3.12 µg/mL
- inhibition of plant pathogenic fungi [3]: inhibit plant pathogenic fungi
- induction of resistance reactions in cultured parsley cells (cultured parsley cells): induce resistance reactions

Molecule: CC1OC(=O)[C@@H](C)NC(=O)[C@@H](CC(N)=O)NC(=O)[C@@H]([C@H](C)O)NC(=O)C(Cc2ccc(O)cc2)NC(=O)[C@@H](C(C)C)NC(=O)[C@H]1NC(=O)CC(O)CCCCCCCCCCCCN=C(N)N (stereo partly drawn) [fusaricidin C] ({Pentadecanoyl(3ξ-OH,15-Gua)}-[Thr(3ξ)][dV][ξY][dT][dN][dA]; ester 1-C)
- inhibition of plant pathogenic fungi [3]: inhibit plant pathogenic fungi

Molecule: CC1OC(=O)[C@@H](C)NC(=O)[C@@H](CCC(N)=O)NC(=O)[C@@H]([C@H](C)O)NC(=O)C(Cc2ccc(O)cc2)NC(=O)[C@@H](C(C)C)NC(=O)[C@H]1NC(=O)CC(O)CCCCCCCCCCCCN=C(N)N (stereo partly drawn) [fusaricidin D] ({Pentadecanoyl(3ξ-OH,15-Gua)}-[Thr(3ξ)][dV][ξY][dT][dQ][dA]; ester 1-C)
- inhibition of plant pathogenic fungi [3]: inhibit plant pathogenic fungi

Molecule: fusaricidin LI-F05
- antifungal activity against various plant pathogenic fungi [5]: certain antifungal activity

Molecule: fusaricidin LI-F07
- antifungal activity against various plant pathogenic fungi [5]: certain antifungal activity

Molecule: fusaricidin LI-F08
- antifungal activity against various plant pathogenic fungi [5]: certain antifungal activity
